Measurements: publication PMC8619001, “Discovery of New Ginsenol-Like Compounds with High Antiviral Activity” (Molecules, 2021)

System: influenza virus A/Puerto Rico/8/34 (H1N1), GS-R virus
Test: microbe, parasite or virus in culture
Type: cell-based

With CC(=O)NC12CC(C)(C)C3CCC1(C)CCCC32C [Compound 1a, (1S,3aR,4R,7aS)-N-(2,2,4,7a-tetramethyloctahydro-1,4-etanoinden-3a-yl)-acetamide] the “Fold increase of IC50 versus virus passaged without GS” value was “almost five-fold higher” and the IC50 (unidentified influenza virus, H1N1, MDCK, read-out: IC50 to GS) was 106 µM.
